Reference: PubChem BioAssay (NCI)
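All cell lines were grown in 96-well plates and treated with compound for 48 hours. TGI: concentration producing complete growth inhibition.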

Assays:
Assay in all cases: NCI tumour cell line growth inhibition, 48 h
786-0 renal = system: 786-0 renal
A498 renal = system: A498 renal
ACHN renal = system: ACHN renal
BT-549 breast = system: BT-549 breast
CAKI-1 renal = system: CAKI-1 renal
LOX IMVI melanoma = system: LOX IMVI melanoma
NCI-H522 lung = system: NCI-H522 lung
SF-268 CNS = system: SF-268 CNS
SNB-75 CNS = system: SNB-75 CNS
UACC-257 melanoma = system: UACC-257 melanoma
RPMI-8226 leukemia = system: RPMI-8226 leukemia

SMILES | TGI (786-0 renal) [µM] | TGI (A498 renal) [µM] | TGI (ACHN renal) [µM] | TGI (BT-549 breast) [µM] | TGI (CAKI-1 renal) [µM] | TGI (LOX IMVI melanoma) [µM] | TGI (NCI-H522 lung) [µM] | TGI (SF-268 CNS) [µM] | TGI (SNB-75 CNS) [µM] | TGI (UACC-257 melanoma) [µM] | TGI (RPMI-8226 leukemia) [µM]
N#Cc1ccc(Oc2nc3ccc(C(F)(F)F)cc3nc2-c2ccccc2)cc1 | 30.8 | 31.2 | 28.4 | > 100 | 44.3 | 91.1 | 32.2 | 76.4 | 32.1 | 54.7 | –
CC(=O)Oc1ccc(/C=C/C(=O)O[C@H]2CCCC[C@@H]2OC(=O)/C=C/c2ccc(OC(C)=O)c(OC(C)=O)c2)cc1OC(C)=O | 36 | 38.2 | 33.4 | 36.9 | > 100 | 15.4 | 22.3 | 32.6 | 58.3 | 52.6 | 31.9
Cn1c(=O)c2c(nc(Nc3ccc(Cl)cc3)n3c(=O)n(-c4ccccc4)c(=O)n23)n(C)c1=O | > 100 | > 100 | > 100 | > 100 | > 100 | > 100 | > 100 | > 100 | > 100 | > 100 | > 100
COc1cc2c(cc1OC)-c1cc3cc(OC)c(OC)cc3c(=O)n1CC2 | > 100 | 45.2 | > 86 | > 100 | > 30.3 | > 100 | > 25.7 | > 100 | > 79.3 | > 78.4 | 47.2
C=C(C(=O)OC)c1cc2ccccc2n1S(=O)(=O)c1ccccc1 | > 33.5 | 5.69 | 5.89 | 5.12 | 2.4 | 8.21 | 2.54 | 8.22 | 14.5 | 18.7 | 5.43
NC1CC(=O)c2sccc21 (configuration not stated) | > 100 | > 100 | > 100 | > 100 | > 100 | – | > 100 | > 100 | > 100 | > 100 | > 100
CC(=O)/C=C(\O)c1[nH]c(C(=O)O)cc1C1CCN(Cc2ccccc2)C1=O (configuration not stated) | 47.6 | > 100 | > 100 | 58.1 | > 100 | – | 49.7 | 49.5 | 63.1 | 53.7 | 49
O=C(OCc1ccccc1)N1CCN(C(=O)OCc2ccccc2)CCN(C(=O)OCc2ccccc2)CCN(C(=O)OCc2ccccc2)CCN(C(=O)OCc2ccccc2)CC1 | 48.4 | > 100 | > 100 | > 100 | > 100 | > 100 | > 100 | – | 96.6 | 73.1 | –
COc1ccc(Oc2nc(C#CC(C)(C)O)nc(Oc3ccc(OC)cc3)n2)cc1 | – | 31.6 | 3.13 | 31.1 | 12.5 | 3 | 9.36 | 28.5 | 31.3 | 38.2 | –
c1ccc(N=C2SC3=NCCN3C2=Nc2ccccc2)cc1 | – | 36.4 | – | 34.7 | 38.2 | – | 30.4 | – | 43.3 | – | 83.8
CC[C@@]12C=CC(=S)N(CCSc3ccccc3)[C@@H]1c1c(n(S(=O)(=O)c3ccc(OC)cc3)c3ccccc13)CC2 | > 100 | > 100 | – | > 100 | > 100 | > 100 | > 100 | > 100 | > 100 | > 100 | –
Cc1nc2ccccc2n1Cc1nnc(N)o1 | > 100 | > 100 | > 100 | > 100 | – | > 100 | > 100 | > 100 | > 100 | > 100 | > 100
CCN1CCC(O)(c2ccc(Oc3ccc(C)cc3)cc2)C(C(=O)c2ccc(Oc3ccc(C)cc3)cc2)C1 (configuration not stated) | 17.2 | 6.39 | 25.9 | 22.4 | 25.8 | 13.5 | – | 32.9 | 20.4 | 26.7 | 4.26
O=C1c2ccccc2-c2nc(/C=C/c3ccccc3)cc3c2c1nc1ccccc13 | > 100 | > 100 | > 100 | > 100 | > 100 | – | 30.2 | > 100 | 47.7 | > 100 | > 100
CC1(CC2=C(C(=O)NCCO[Si](C)(C)C(C)(C)C)C3(OCCO3)C2=O)OCCO1 | > 100 | > 100 | > 100 | > 100 | > 100 | > 100 | 93.7 | > 100 | > 100 | > 100 | –
O=C1ON=C2C3CC4CC12CC1(C3)C(=O)ON=C41 | > 100 | > 100 | > 100 | > 100 | > 100 | > 100 | > 100 | – | > 100 | > 100 | > 100
COc1ccccc1NC(=O)O/N=C(/Cl)C(C)C | 24.9 | 29.9 | 17.4 | 21.6 | – | 6.75 | 3.37 | 32.5 | 27.1 | 26.8 | 4.71
